{
  "source": "paper PMC11097166",
  "about": "“Imidazole-Derived Alkyl and Aryl Ethers: Synthesis, Characterization, In Vitro Anticancer and Antioxidant Activities, Carbonic Anhydrase I–II Inhibition Properties, and In Silico Studies” (ACS Omega, 2024); as to Effect on hCA I isoenzyme activity: key: +: active; -: not effect; as to Effect on hCA II isoenzyme activity: key: +: active; -: not effect",
  "key": {"[1]": {"tested_on": "MCF7 human breast adenocarcinoma cell line", "test": "MTT cell viability assay on MCF7", "format": "cell-based", "details": "24 h incubation", "text": "(§1) 96-well plates were used for seeding cells. […] All compounds were run in three repetitions."}, "[2]": {"tested_on": "HT29 colon cancer cell line", "test": "MTT cell viability assay on HT29", "format": "cell-based, human", "details": "24 h incubation", "text": "as §1"}, "FRAP antioxidant assay": {"test": "FRAP antioxidant assay", "details": "trolox standard curve", "experimental": "The FRAP method was used to determine the antioxidant power of compounds. This method, which determines the reducing power of compounds, was developed by Benzie and Strain.[48] Fe(III)–TPTZ complex is formed as a result of the reaction of Fe(III) with tripyridyltriazine (TPTZ), and this complex is reduced to the Fe(II)–TPTZ complex with the antioxidant in the environment. The color of this complex is dark blue and gives the maximum absorbance at 593 nm.[48] Incubation is performed for up to 30 min to complete the reaction, and the correct absorbance values were read. The FRAP values of the samples were calculated as “μmol trolox equiv/g sample” with the help of the standard curve obtained using methanol–trolox standard solutions (0; 0.2; 0.4; 0.6; 0.8; and 1.0 μmol/mL) which were used as the positive control.[49] […]"}, "[3]": {"tested_on": "L929 mouse fibroblast cell line", "procedure": "(§3) Human breast adenocarcinoma cell line (MCF7), rat glial tumor cell line (C6), healthy mouse fibroblast cell line (L929), and colon cancer (HT29) cell line were purchased from ATCC (American type culture collection) and studied.\n(§4) The cytotoxic effects of all compounds by MTT analysis on L929, HT29, MCF7, and C6 cell lines were investigated. 96-well plates were used for seeding cells. Approximately 1 × 10^4 cells were seeded in each well. Cells were allowed to adhere for 24 h, and then the compounds were applied at different concentrations. All compounds were run in three repetitions. Wells with a maximum of 100 μM compounds were incubated for 24 h. Three wells without compounds treated with only DMSO (with total volume of % 0.5) were used as negative controls, and cisplatin was used as a positive control. […] After the MTT interaction, the FRAP wells were emptied, and DMSO solution was placed in them. The formazan crystals formed were dissolved with this solution, and the number of viable cells in each well was determined by color change."}, "[4]": {"tested_on": "L929 mouse fibroblast cell line", "test": "MTT cell viability assay on L929", "details": "read-out: IC50 L929; 24 h incubation, MTT", "procedure": "as §3, §4"}, "hCA II": {"target": "hCA II (Homo sapiens, UniProt P00918)", "test": "CA esterase activity method, hCA II", "format": "biochemical", "details": "Table S3", "text": "(§2) The method used to spectrophotometrically detect the antiepileptic, antiglaucoma, and […] effects of the obtained compounds in vitro is the esterase activity method. This method relies on the esterase activity of CA for the hydrolysis of p-nitrophenyl acetate as a substrate, which is a part of the reaction mechanism involving p-nitrophenol or p-nitrophenolate."}, "[5]": {"tested_on": "C6 rat glial tumor cell line", "test": "MTT cell viability assay on C6", "format": "cell-based", "details": "24 h incubation", "text": "as §1"}, "hCA I": {"target": "hCA I (Homo sapiens, UniProt P00915)", "sequence (P00915 whole entry)": "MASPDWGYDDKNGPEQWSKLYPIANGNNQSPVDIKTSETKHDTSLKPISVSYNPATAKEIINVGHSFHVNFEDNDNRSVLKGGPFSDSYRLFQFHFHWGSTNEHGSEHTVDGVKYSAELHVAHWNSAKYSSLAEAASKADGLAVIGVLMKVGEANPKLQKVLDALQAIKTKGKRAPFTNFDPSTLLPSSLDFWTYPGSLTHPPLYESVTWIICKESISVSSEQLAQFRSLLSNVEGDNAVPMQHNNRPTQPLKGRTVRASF", "test": "CA esterase activity method, hCA I", "format": "biochemical", "details": "Table S3", "text": "as §2"}},
  "data": [
    {"substance": "2-(1H-Imidazol-1-yl)-1-(4-methoxyphenyl)ethenol [Compound 4c]", "values": [
      {"measurement": "IC50", "setting": "[1]", "value": "101 ± 14.5", "unit": "µM"},
      {"measurement": "IC50", "setting": "[2]", "value": "88.4 ± 15.7", "unit": "µM"},
      {"measurement": "FRAP", "setting": "FRAP antioxidant assay", "value": "0.29 ± 0.05", "unit": "μmol trolox equiv/g"},
      {"measurement": "viability on healthy cell line at maximum dose", "setting": "[3]", "value": "at least 50%"},
      {"measurement": "IC50", "setting": "[4]", "value": "194 ± 12.2", "unit": "µM"},
      {"measurement": "Effect on hCA II isoenzyme activity", "setting": "hCA II", "value": "+"},
      {"measurement": "IC50", "setting": "[5]", "value": "43.8 ± 5.83", "unit": "µM"},
      {"measurement": "Effect on hCA I isoenzyme activity", "setting": "hCA I", "value": "+"}
    ]}
  ]
}
